Each compound was assayed against KCNT1 (KNa1.1, Slack) (Homo sapiens (Human), UniProt Q5JUK3) (assay: KCNT1-WT-Basal - Patch Clamp Assay). Settings: tetracycline inducible HEK-TREX cell line; SyncroPatch 384PE automated patch clamp; step to 0 mV; room temperature.
Type: cell-based
Procedure: Inhibition of KCNT1 (KNa1.1, Slack) was evaluated using a tetracycline inducible cell line (HEK-TREX). Currents were recorded using the SyncroPatch 384PE automated, patch clamp system. Pulse generation and data collection were performed with PatchController384 V1.3.0 and DataController384 V1.2.1 (Nanion Technologies). The access resistance and apparent membrane capacitance were estimated using built-in protocols. Current were recorded in perforated patch mode (10 µM escin) from a population of cells. The cells were lifted, triturated, and resuspended at 800,000 cells/ml. The cells were allowed to recover in the cell hotel prior to experimentation. Currents were recorded at room temperature. The external solution contained the following (in mM): NaCl 105, NMDG 40, KC1 4, MgC12 1, CaC12 5 and HEPES 10 (pH = 7.4, Osmolarity ~300 mOsm). The extracellular solution was used as the wash, reference and compound delivery solution. The internal solution contained the following (in mM): NaCl 70, KF 70, KC1 10, EGTA 5, HEPES 5 and Escin 0.01 (pH = 7.2, Osmolarity ~295 mOsm). Escin is made at a 5 mM stock in water, aliquoted, and stored at -20° C. The compound plate was created at 2x concentrated in the extracellular solution. The compound was diluted to 1:2 when added to the recording well. The amount of DMSO in the extracellular solution was held constant at the level used for the highest tested concentration. A holding potential of -80 mV with a 100 ms step to 0 mV was used. Mean current was measured during the step to 0 mV. […] The average mean current from 3 sweeps was calculated and the % inhibition of each compound was calculated. The % Inhibition as a function of the compound concentration was fit with a Hill equation to derive IC50, slope, min and max parameters. If KCNT1 inhibition was less than 50% at the highest tested concentration or if an IC50 could not be calculated, then a percent inhibition was reported in place of the IC50.
In this table, “A” indicates IC50 of less than or equal to 1 µM; “B” indicates inhibition of between 1 µM to 20 µM; and “C” indicates inhibition of greater than or equal to 20 µM.

Sequence of KCNT1 (KNa1.1, Slack) (Q5JUK3 whole entry): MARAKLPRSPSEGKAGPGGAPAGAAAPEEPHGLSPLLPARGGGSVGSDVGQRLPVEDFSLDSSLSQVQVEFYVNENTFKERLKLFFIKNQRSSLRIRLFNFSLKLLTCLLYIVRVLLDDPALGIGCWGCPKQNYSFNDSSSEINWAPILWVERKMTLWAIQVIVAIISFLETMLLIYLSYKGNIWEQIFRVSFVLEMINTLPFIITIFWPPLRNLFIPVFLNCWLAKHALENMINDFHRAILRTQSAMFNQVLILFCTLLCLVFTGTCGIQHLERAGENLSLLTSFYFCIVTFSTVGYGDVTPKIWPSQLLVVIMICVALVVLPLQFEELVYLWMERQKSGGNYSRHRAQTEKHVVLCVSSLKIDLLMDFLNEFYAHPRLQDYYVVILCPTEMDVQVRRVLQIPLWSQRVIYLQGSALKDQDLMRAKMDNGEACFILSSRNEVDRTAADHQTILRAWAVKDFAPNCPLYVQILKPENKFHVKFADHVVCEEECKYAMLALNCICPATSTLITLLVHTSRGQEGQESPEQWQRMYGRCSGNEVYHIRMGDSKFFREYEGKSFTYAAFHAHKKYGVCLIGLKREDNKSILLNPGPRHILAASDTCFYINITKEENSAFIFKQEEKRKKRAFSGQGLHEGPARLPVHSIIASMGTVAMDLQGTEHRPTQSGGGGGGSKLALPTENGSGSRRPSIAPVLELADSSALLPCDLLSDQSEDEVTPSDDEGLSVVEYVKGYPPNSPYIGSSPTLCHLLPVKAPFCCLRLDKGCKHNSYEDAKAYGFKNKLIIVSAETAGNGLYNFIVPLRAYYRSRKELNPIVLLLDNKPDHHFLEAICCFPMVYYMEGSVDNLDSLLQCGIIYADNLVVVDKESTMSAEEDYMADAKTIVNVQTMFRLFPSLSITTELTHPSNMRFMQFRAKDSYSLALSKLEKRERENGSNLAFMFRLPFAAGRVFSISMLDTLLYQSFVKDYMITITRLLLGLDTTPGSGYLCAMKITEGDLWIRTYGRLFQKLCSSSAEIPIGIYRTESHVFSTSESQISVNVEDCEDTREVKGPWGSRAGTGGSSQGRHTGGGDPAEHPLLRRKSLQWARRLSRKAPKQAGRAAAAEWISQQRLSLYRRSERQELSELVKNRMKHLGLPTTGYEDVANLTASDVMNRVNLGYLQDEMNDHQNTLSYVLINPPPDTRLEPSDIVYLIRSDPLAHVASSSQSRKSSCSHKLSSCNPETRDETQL

| SMILES | IC50 [nM] |
| --- | --- |
| C[C@@H](NC(=O)c1cc(C(F)(F)F)nn1C)c1nc(-c2ccnc(C3CC3)c2)ns1 (single isomer, unassigned) [Example 13] | ≤ 1000 |
| C[C@@H](NC(=O)c1cccc(Cl)c1)c1nc(-c2ccnc(C3CC3)c2)ns1 (single isomer, unassigned) [Example 7] | ≤ 1000 |
| C[C@@H](NC(=O)N1CCCCC1)c1cc(-c2ccnc(C(F)(F)F)c2)no1 (single isomer, unassigned) [Example 9] | 1000 to 20000 |
